US20120100077A1, “MIXTURE OF AMPHIPATHIC MOLECULES AND METHOD FOR MODIFYING CELL MEMBRANES BY MEANS OF FUSION” (priority 2009, published 2012)
Where two headings read alike, the source gives them in different places.

Legend:
cell membrane [1] = experiment: Fusion quality of R groups bound to amphipathic molecules B in the fusion mixture
Experimental: (§1) After homogenization in the organic solvent, the organic solvent should be removed.
(§2) The dried mixture is taken up in an aqueous buffer solution, preferably having a pH value of 7, and is homogenized once more. Advantageously a liposome forms, which comprises the molecule types that were added. Molecules of molecule types E and F can likewise be added.
(§3) According to the actual method, the fusion mixture is diluted with a cell medium, e.g. 1:100 (mixture:cell medium v/v), homogenized once more, and added to the cells.
(§4) To this end it is sufficient for the cells to be brought in contact with the mixture for approximately 1 to 60 minutes, and in the case of tissue samples, for 60 to 120 minutes, for example. A cell washing step should then be incorporated.

cell membrane [2] = system: cell membrane
Experimental: as §1, §2, §3, §4

[3] = R group covalently bound to lipid (molecule type B)

Molecule | Fusion quality (cell membrane [1]) | Fusion quality (cell membrane [1]; [3]) | also measured
CCCCCCCC/C=C\CCCCCCCC(=O)OC[C@H](COP(=O)(O)OCCNc1ccc([N+](=O)[O-])c2nonc12)OC(=O)CCCCCCC/C=C\CCCCCCCC.CCN(CC)CC [NBD, N-(7-nitrobenz-2-oxa-1,3-diazol-4-yl)-1,2-diolenoyl-sn-glycero-3-phosphoethanolamine (triethylammonium salt)] | 2 | – | –
Texas Red 1,2-dihexadecanoyl-sn-glycero-3-phosphoethanolamine (triethylammonium salt) [Texas-Red] | – | 1 | –
CCCCCCCC/C=C\CCCCCCCC(=O)OC[C@H](COP(=O)(O)OCCNC(=O)OCCOCCOCCOCCOCCOCCOCCOCCOCCOCCOCCOCCOCCOCCOCCOCCOCCOCCOCCOCCOCCOCCOCCOCCOCCOCCOCCOCCOCCOCCOCCOCCOCCOCCOCCOCCOCCOCCOCCOCCOCCOCCOCCOCCOCCOC)OC(=O)CCCCCCC/C=C\CCCCCCCC.N [PEG(2000), 1,2-dioleoyl-sn-glycero-3-phosphoethanolamine-N-[methoxy(polyethylene glycol)-2000](ammonium salt)] | – | 6 | toxic (cell membrane [1]; [3]): toxic
CCCCCCCC/C=C\CCCCCCCC(=O)OC[C@H](COP(=O)(O)OCCNC(=O)CCCCCNC(=O)CCCCC1SCC2NC(=O)NC21)OC(=O)CCCCCCC/C=C\CCCCCCCC (stereo partly drawn) [capBiotin, 1,2-dioleoyl-sn-glycero-3-phosphoethanolamine-N-cap-biotin] | 6 | – | function as fusion-inducing molecule type B (cell membrane [1]): do not, however, function
CCCCC/C=C\C/C=C\C/C=C\C/C=C\CCCC(=O)O[C@H](COC(=O)CCCCCCCCCCCCCCCCC)COP(=O)([O-])O[C@H]1C(O)C(O)C(O)[C@@H](O)C1O.[Na+] (stereo partly drawn) [inositol, L-α-phosphatidylinositol (sodium salt)] | – | 6 | function as fusion-inducing molecule type B (cell membrane [1]): non-functional; toxic (cell membrane [1]; [3]): toxic
CCCCCCCCCCCCCCCCCCN1C(=CC=Cc2oc3ccccc3[n+]2CCCCCCCCCCCCCCCCCC)Oc2ccccc21.[O-][Cl+3]([O-])([O-])[O-] [DiO per se, DiOC18(3)3,3′-dioctadecyloxacarbocyanine perchlorate] | – | 1 | –
c1cc2ccc3cccc4ccc(c1)c2c34 [pyrene] | – | – | toxic (cell membrane [2]): 5(toxic)
CCCCCCCC/C=C\CCCCCCCC(=O)OC[C@H](COP(=O)(O)OCCNS(=O)(=O)c1ccc(-c2c3ccc(N(CC)CC)cc3[o+]c3cc(N(CC)CC)ccc23)c(S(=O)(=O)[O-])c1)OC(=O)CCCCCCC/C=C\CCCCCCCC.CCN(CC)CC [LR, Lissamine rhodamine B 1,2-diolenoyl-sn-glycero-3-phosphoethanolamine, (triethylammonium salt)] | 1 | – | –
